Results from patent US20240114940A1, “SACCHARIDE COMPOSITIONS HAVING SUCROSE-LIKE CHARACTERISTICS AND RELATED METHODS” (priority 2021, published 2024).

Experiments:
Type in all cases: physicochemical
[1] = Heating in a closed system (sealed microwave reactor tubes, 2 min), saccharides by ion-exchange chromatography; settings: acidic conditions (pH 3 buffer), 177° C.
[2] = Breakdown products by GCMS without an amino acid present; settings: pH 7, 160° C., 10 min
Method: (§1) Controls were prepared addition of 1 mL of pH 7 buffer to the amino acids. The samples were rapidly heated to 160° C. and held at this temperature for 10 min. Samples were rapidly cooled afterwards, and absorbance at 500 nm was measured for each reaction mixture. Volatiles were analysed using gas chromatography mass spectrometry (GCMS) analysis. An Agilent Technologies 5975B Inert XL MSD gas chromatography, single quadruple mass spectrometer was used for analysis of volatiles. Samples were added to separate GCMS headspace vials and weighed. 0.03 g of 0.01% 3-heptanone in water was added and the vial was sealed for GCMS solid phase micro extraction (SPME) analysis. Samples were analysed in a randomized order. Samples were incubated and agitated at 250 RPM, at 60° C. for 15 min prior to SPME analysis of volatiles. The SPME fibre (50/30 DVB/CAR/PDMS, 23 Ga) extracted for 10 min, then thermally desorbed at 250° C. for 5 min. A 30 m×0.25 mm×0.25 μm HP-5MS column was used (Phenomenex, UK). Oven temperature settings: 31° C.-5 min, 5° C./min to 150° C., 30° C./min to 240° C. Inlet settings: 250° C., pressure 10.4 psi, flow 11.2 mL/min, split ratio 7:1. MS operated in full scan mode from 40 to 400 m/z with a scan time of 0.2s. The peak area of the aroma compounds was compared to the peak of the internal standard 3-heptanone and corrected for the weight of the sample.
(§2) The concentration of the different classes of Maillard reaction breakdown products is presented in Tables 9B-E. The same data as Tables 9B-E is also presented in FIG. 27. Concentrations are in parts per billion of the difference non-enzymatic breakdown products for the different compositions at 160° C. analysed by GCMS.

[3] = Furfural and 5-hydroxymethylfurfural in headspace of heated solutions; settings: solutions in water
Method: The solutions were rapidly heated to set temperatures and held at temperature for 5 min. After 5 min, the samples were rapidly cooled. […] (FIG. 18). The data is also plotted in FIG. 18 until 180° C.

[4] = Breakdown products by GCMS after Maillard reaction in the presence of Tryptophan; settings: with Tryptophan, pH 7, 160° C., 10 min
Method: as §1, §2

[5] = Breakdown products by GCMS after Maillard reaction in the presence of Leucine; settings: 160° C.
Method: as §1, §2

[6] = pH and absorbance at 420 nm of closed-system heated solutions
[7] = Carbonyls/ketones, Maillard reaction in the presence of Leucine, GCMS
[8] = Furans, Maillard reaction in the presence of Leucine, GCMS
[9] = Pyrazines, Maillard reaction in the presence of Leucine, GCMS

SMILES: OC[C@H]1O[C@@](CO)(O[C@H]2O[C@H](CO)[C@@H](O)[C@H](O)[C@H]2O)[C@@H](O)[C@@H]1O [Sucrose]
- sucrose degraded [1]: around 85%
- Concentration of 2-Butanone [2]: 178.52 ppb
- Concentration of 2-Propanone, 1-hydroxy- [2]: 96.48 ppb
- Concentration of 5-methyl furfural [2]: 0 ppb
- Concentration of Diacetyl (2,3-Butanedione) [2]: 245.45 ppb
- Concentration of Furan, 2-methyl- [2]: 0 ppb
- Concentration of Furfural [2]: 1.42 ppb
- temperature at which HMF concentration increased [3]: 180 °C
- Concentration of 2-Butanone [4]: 3.16 ppb
- Concentration of 2-Propanone, 1-hydroxy- [4]: 20.48 ppb
- Concentration of Diacetyl (2,3-Butanedione) [4]: 6.99 ppb
- Concentration of Furan, 2-methyl- [4]: 0.25 ppb
- Concentration of Furan, 2-pentyl- [4]: 0.03 ppb
- Concentration of Furfural [4]: 0.03 ppb
- Concentration of Indole [4]: 20.81 ppb
- Concentration of Pyrazine, 2,5-diethyl- [4]: 5.74 ppb
- Concentration of Pyrazine, 2,5-dimethyl- [4]: 778.85 ppb
- Concentration of Pyrazine, 2-ethyl-5-methyl- [4]: 201.9 ppb
- Concentration of Pyrazine, ethyl- [4]: 0.19 ppb
- Concentration of Pyrazine, methyl- [4]: 0.56 ppb
- 2-Butanone concentration [5, 7]: 9.73 ppb
- 2-Propanone, 1-hydroxy- concentration [5, 7]: 45.73 ppb
- Diacetyl (2,3-Butanedione) concentration [5, 7]: 41.79 ppb
- Furan, 2-methyl- concentration [5, 8]: 0.42 ppb
- Furfural concentration [5, 8]: 0.16 ppb
- Pyrazine, 2,5-diethyl- concentration [5, 9]: 24.28 ppb
- Pyrazine, 2,5-dimethyl- concentration [5, 9]: 2111.75 ppb
- Pyrazine, 2-ethyl-5-methyl- concentration [5, 9]: 554.43 ppb
- Pyrazine, ethyl- concentration [5, 9]: 8.8 ppb
- Pyrazine, methyl- concentration [5, 9]: 20.49 ppb
- Isovaleraldehyde (Butanal, 3-methyl-) concentration ([5]; Strecker aldehydes, Maillard reaction in the presence of Leucine, GCMS): 3412.25 ppb
- Isovaleraldehyde concentration ([5]; with leucine): 3400 ppb
- A420 after heating to 177° C. ([6]; samples labelled as pH 3): 0.089
- A420 before heating ([6]; samples labelled as pH 3): 0.082
- pH after heating to 177° C. ([6]; samples labelled as pH 3): 3.08
- pH before heating ([6]; samples labelled as pH 3): 3
- A420 after heating to 110° C. ([6]; samples labelled as pH 7): 0.086
- A420 before heating ([6]; samples labelled as pH 7): 0.115
- pH after heating to 110° C. ([6]; samples labelled as pH 7): 6.88
- pH after heating to 177° C. ([6]; samples labelled as pH 7): 6.84
- pH before heating ([6]; samples labelled as pH 7): 6.78
- A420 before heating ([6]; samples labelled as pH 9): 0.087
- pH after heating 177° C. ([6]; samples labelled as pH 9): 8.14
- pH before heating ([6]; samples labelled as pH 9): 8.76
